The text below walks through data of PMC9021288 (Nature Communications, 2022).

Where “and” joins values, the source holds several entries; their conditions need not be identical. Identical values can stand only once.

Series [1] has as its system P. falciparum Pf3D7^0087/N9. Briefly: Single dose in vivo efficacy in humanized NSG mice. Set-up: species or system Plasmodium falciparum. The procedure:
The effect of pantothenamides on P. falciparum Pf3D7^0087/N9 [66] in vivo was assessed in female NSG mice (NODscidIL2Rγ^null) at the Swiss Tropical and Public Health Institute (Basel, Switzerland) as described previously (Supplementary Table 30)[15],[67]. Briefly, humanized mice were engrafted daily with human erythrocyte suspensions from days -11 to day 6. […] On day 4, groups of n = 2 mice were treated with a single dose pantothenamides or chloroquine (50 mg/kg) by oral gavage. […] Serial dilutions were prepared in the same solvent to concentrations 50 times higher than the corresponding CAL and QC concentrations. The concentrations were calculated under consideration of purity and salt factor. The spiking of the CAL and QC sample were performed at room temperature.

Series [2] can be described thus: Human hepatocyte clearance (relay assay). The following applies: human. An excerpt:
(§1) Briefly, cryopreserved human primary hepatocytes were thawed and cultured as described above.

Series [3] deals with cryopreserved human primary hepatocytes. Briefly: Human hepatocyte clearance (relay assay). The following applies: 10 µM, single replicates.
From the text: as §1

The next series deals with P. falciparum 3D7. As to the kind of experiment: Parasite reduction rate (PRR) in vitro killing rate assay. The class given is cell-based, Plasmodium falciparum. As for the experimental part: The antimalarial killing rate was determined by GlaxoSmithKline (GSK, Tres Cantos, Madrid, Spain) as described previously. […] The number of viable parasites was determined on day 21 and 28 by counting the wells with parasite growth.

Series [4] has as its system P. falciparum NF54 asexual blood-stage parasites. Briefly: 72-h asexual blood-stage replication assay (SYBR Green). The class given is cell-based, Plasmodium falciparum. The settings on record: asexual blood stages NF54 parasites; read-out: IC50. As for the experimental part: Replication assays were performed using a SYBR Green method as described previously. Briefly, asynchronous parasites were diluted to 0.83% parasitemia, 3% hematocrit in 30 µl medium, and added to 30 µl of diluted compounds in medium (0.1% DMSO final concentration) in black 384-wells plates. After a 72-h incubation, 30 µl of SYBR Green diluted in lysis buffer was added according to the manufacturer’s protocol (Life Technologies). Fluorescence intensity was measured on a BioTek Synergy 2 Plate Reader after 1-h incubation and was normalized to a DMSO control (100% growth) and DHA- or epoxomicin-treatment (no growth). […] Parasite survival was assessed by flow cytometry on an Accuri C6 (BD Biosciences) with BD C6 Plus software using SYBR Green and MitoTracker Deep Red FM (Life Technologies) as nuclear stain and vital dye, respectively, and data were analyzed using FlowJo (10.5.0). […] Luminescence was measured after 72 h using the Renilla-Glo(R) Luciferase Assay System (Promega E2750) and the GlomAX® Discover Multimode Microplate Reader (Promega). The luminescence values were normalized to DMSO vehicle (100% growth) and 200 nM chloroquine-treated (no growth) samples as controls.
Dose-response assays were analyzed by a nonlinear regression using a four-parameter model and the least squares method to find the best fit. One-way Analysis of variance (ANOVA) was performed using the Bonferroni’s Multiple Comparison Test. For the majority of experiments, 2-4 biological replicates were performed. Typically, 2 replicates were performed for screening activities, and a minimum of 3 replicates are performed for other experiments unless stated otherwise.

A further series concerns HepG2 cells. Briefly: HepG2 viability (resazurin). The following applies: human, 10 µM. The procedure:
Safety studies were performed by commercial services using their standard protocols. […] Genotoxicity was investigated using the Ames test (Bacterial Reverse Mutation Assay) (Covance Laboratories Ltd, North Yorkshire, England). In vitro mammalian cell micronucleus screening assay was studied in human peripheral blood lymphocytes (BioReliance Corporation, Rockville, USA). Cardiotoxicity was determined against the hERG channel in an automated patch clamp assay using the Qpatch or against the hNaV 1.5, hKV 1.5 and hCaV 1.2 using a manual patch-clamp technique (Metrion Biosciences, Cambridge, UK). Cytotoxicity in human and rat primary hepatocytes was assessed using the CellTiter-Blue assay performed by commercial services (KaLy-Cell). The viability of HepG2 cells was monitored through the addition of 1 mM resazurin. Following 6 h incubation, the relative amount of reduced resazurin was detected in a fluorimeter and compared to the assay controls (vehicle: 0.1% DMSO and positive control: 10 µM puromycin).

For series [5], the system named is human G6PD-A-deficient RBCs. As to the kind of experiment: Hemolytic toxicity in NSG mice engrafted with G6PD-deficient human RBCs. The settings on record: Primaquine group.
Experimental: Hemolytic toxicity was determined in female NSG mice (Jackson Laboratories) using erythrocytes from a G6PD-A-deficient blood donor (0.4 u/g hemoglobin).

Turning to `CCN(CC)CCCC(C)Nc1ccnc2cc(Cl)ccc12` (stereo not shown) [CQ, chloroquine, reference compound], the Parasitemia in series [1] (day 5 post infection, 50 mg/kg p.o. on day 4, per mouse, 50 mg/kg) is 0.12 and 0.07; in series [1] (day 6 post infection, per mouse), 0 and 0.01; in series [1] (day 7 post infection, per mouse) it was 0.
By fraction remaining is commonly meant the share of the starting amount still present when the sample was taken. A word on the hepatocyte CLint: it is the rate of metabolic loss divided by the concentration. In the case of `CCOc1ccc2ccc(=O)oc2c1` [7-Ethoxycoumarin], the share remaining at 0 h, 10 µM in series [2] (% Remaining, 10 µM, hepatocyte donor HC02, 0 h, single replicates) is 100%; in series [2] (% Remaining, 10 µM, hepatocyte donor HC06, 0 h, single replicates) it was 100%; in series [2] (% Remaining, 10 µM, hepatocyte donor HC425, 0 h, single replicates), 100%; in series [2] (% Remaining, 10 µM, hepatocyte donor HC1010, 0 h, single replicates), 100%. Also, the fraction remaining at 6 h, 10 µM in series [2] (% Remaining, 10 µM, hepatocyte donor HC02, 6 h, single replicates) came to 2.2%; in series [2] (% Remaining, 10 µM, hepatocyte donor HC06, 6 h, single replicates), 56.3%; in series [2] (% Remaining, 10 µM, hepatocyte donor HC425, 6 h, single replicates), 72.1%; in series [2] (% Remaining, 10 µM, hepatocyte donor HC1010, 6 h, single replicates), 29.5%. Also, the fraction remaining at 3 h, 10 µM in series [2] (% Remaining, 10 µM, hepatocyte donor HC06, 3 h, single replicates) turned out to be 80.9%; in series [2] (% Remaining, 10 µM, hepatocyte donor HC1010, 3 h, single replicates) it was 46.7%. Moreover, the amount remaining at 24 h, 10 µM in series [2] (% Remaining, 10 µM, hepatocyte donor HC425, 24 h, single replicates) amounted to 33.1%; in series [2] (% Remaining, 10 µM, hepatocyte donor HC1010, 24 h, single replicates), 2%. In series [2] (cryopreserved human primary hepatocytes (relay assay), % Remaining, 10 µM, hepatocyte donor HC425, 48 h, single replicates), this compound showed a share remaining at 48 h, 10 µM of 25.4%. Besides, the amount remaining at 72 h, 10 µM in series [2] (cryopreserved human primary hepatocytes (relay assay), % Remaining, 10 µM, hepatocyte donor HC425, 72 h, single replicates) worked out at 8.2%. The hepatocyte CLint in series [2] (cryopreserved human primary hepatocytes (relay assay), CLint, donor HC02) was 21.2 µL/min/1e6 cells; in series [2] (cryopreserved human primary hepatocytes (relay assay), CLint, donor HC06) it was 3.14 µL/min/1e6 cells; in series [2] (cryopreserved human primary hepatocytes (relay assay), CLint, donor HC1010), 6.28 µL/min/1e6 cells. In series [2] (cryopreserved human primary hepatocytes (relay assay), CLint, donor HC425), this compound displayed a hepatocyte CLint at 10 µM of 1.19 µL/min/1e6 cells. Besides, the “% Remaining” value in series [3] (hepatocyte donor HC06, 3 h) worked out at 76.9%; in series [3] (hepatocyte donor HC06, 6 h) it was 57.5%; in series [3] (hepatocyte donor HC425, 6 h), 78.5%; in series [3] (hepatocyte donor HC425, 24 h), 39.0%; in series [3] (hepatocyte donor HC425, 48 h), 22.9%; in series [3] (hepatocyte donor HC425, 72 h) it was 4.8%. The “% Remaining” value in series [3] (hepatocyte donor HC1010, 3 h) is on record as 50.4%; in series [3] (hepatocyte donor HC1010, 6 h) it was 26.9%.
Turning to `CCc1nc(N)nc(N)c1-c1ccc(Cl)cc1` [Pyrimethamine], the “Average (log parasites +1)” value with P. falciparum 3D7 (24 h) is listed as 4.95; in the series with P. falciparum 3D7 (48 h), 1.57; in the series with P. falciparum 3D7 (72h) it was 0.53; with P. falciparum 3D7 (96h), 0.00; with P. falciparum 3D7 (120h) it was 0.00. Moreover, the “log (parasites +1)” value in the series on P. falciparum 3D7 (96h) and in the series with P. falciparum 3D7 (120h) was 0 throughout. Besides, the parasites with P. falciparum 3D7 (96h) and with P. falciparum 3D7 (120h) was 0 throughout.
In series [2] (hepatocytes, % Remaining), `CCCCNC(=O)NS(=O)(=O)c1ccc(C)cc1` [Tolbutamide] registered a fraction remaining at 0 h, 10 µM of 100% and an amount remaining at 3 h, 10 µM of 98.8%.
Usually IC50 stands for the concentration that inhibits the measured activity by half. On to `Cc1cccc(C(=O)N[C@@H](C)CNC(=O)[C@H](O)C(C)(C)CO)c1` [MMV1542099], for which the IC50 in series [4] was found to be 0.022 µM.
The same measure, in the same setting: the result for `Cc1ccccc1C(=O)N[C@@H](C)CNC(=O)[C@H](O)C(C)(C)CO` [MMV1542005] reads over 10 µM.
Consider `COc1ccc(C[C@H](N)C(=O)N[C@H]2[C@@H](O)[C@H](n3cnc4c(N(C)C)ncnc43)O[C@@H]2CO)cc1` [puromycin], for which the “HepG2 viability assay, raw signal, MIN average” value with HepG2 cells is 764.
`COc1cc(NC(C)CCCN)c2ncccc2c1` (stereo not shown) [Primaquine]: in series [5] (day 0, individual mice), the “Human RBCs” value is 74.3% and 71.3% and 74.2% and 65%; the Reticulocytes is 0.41% and 0.56% and 0.49% and 0.54%. Also, in series [5] (day 4, individual mice), the “Human RBCs” value was 54.6% and 45.9% and 58.7% and 49.1%; the Reticulocytes is 5.2% and 2.88% and 7.64% and 5.35%. Further, in series [5] (day 7, individual mice), the “Human RBCs” value was 13.5% and 5.35% and 9.52% and 4.33%; the Reticulocytes was 4.47% and 5.69% and 5.07% and 8.31%. In series [5] (individual mice), the Hematocrit was 31.37% and 28.81% and 29.69% and 29.51%; the Spleen weight is 1.219 % of body weight and 1.099 % of body weight and 1.08 % of body weight and 1.161 % of body weight.
`C[C@@H](CNC(=O)[C@H](O)C(C)(C)CO)NC(=O)c1cc[nH]c1` [MMV893376]: the IC50 in series [4] was found to be 1.8 µM.
